Data reported in US9663789B2, “PME-1 as a biomarker to predict and diagnose endometrial and breast cancer and gene silencing of PME-1 to inhibit epithelial to mesenchymal transition” (MEDICAL DIAGNOSTIC LABORATORIES, LLC, priority 2013, dated 2017).

Key:
Type in all cases: cell-based, human
RL95-2 cells [1] = assay: Colony forming / invasive growth assay in Matrigel
Procedure: To determine if PME-1 contributes to the more invasive and metastatic phenotypes, we performed a colony forming assay in matrigel.
The 3D On Top Matrigel Assay was completed in 24 well dishes. Briefly, the bottoms of 24 well dishes were coated with 50 μl BD Matrigel Basement Matrix Phenol Red Free (BD Biosciences cat. #356237) and allowed to solidify at 37° C. 10^5 cells were suspended in 250 μl chilled medium containing either 10 ng/ml of TGF-b or vehicle and allowed to settle at 37° C. for 30 minutes. Chilled medium containing 10% of Matrigel was added by pipetting gently down the sidewall of the well and incubated at 37° C. for ten days changing top medium every second day. Colony counts were performed on the tenth day; averages were taken from three fields of view using a 10× objective. Experiment was repeated three times.

RL95-2 cells [2] = assay: Immunofluorescence of mitotic cells (phosphorylated histone H3 Ser10); settings: RL95-2, compared to control cells
Procedure: Endometrial cancer cells were stained for phosphorylated histone H3 on serine 10, a marker of mitotic cells, followed by counterstaining with DAPI (FIG. 12) to identify all cells.
For analysis of patient samples, tissues were blocked for 2 hours with 10% FBS in TBST for at RT, incubated with each primary antibody (together) overnight at 4° C., washed three times for 15 min in TBST, incubated with each secondary fluorescent antibody (together) for 1 hr at RT, washed again as above, stained with DAPI and mounted with cover-slips using vectashield mounting media (Vector Labs). Primary antibodies used were for PME-1 (Santa Cruz), E-cadherin (Millipore), and vimentin (Genscript). 1×10^3RL95-2 cells were plated on a chamber slide and were incubated overnight at 37° C. Slides were fixed with 4% paraformaldehyde (PFA) on ice for two hours. The cells were incubated with the primary antibody to Histone 3 (pH3) phosphorylated at Ser10 (1:200, Cell Signaling Technologies) overnight and developed with the secondary anti-rabbit Alexa-Fluor 555 antibody (Cell Signaling Technologies). DAPI was used as a nuclear counter-stain (Sigma Aldrich). Images were taken with the Nikon Eclipse TE2000 at 20×.

PPME1 mRNA = assay: qRT-PCR of PME-1 (PPME1) expression in RL95-2 cells; settings: RL95-2 cells stably expressing shRNA, vs shSCR
Procedure: (§1) Using RL95-2 endometrial cancer cells, we overexpressed PME-1 (FIG. 21A) or depleted PME-1 with shRNA targeted to PME-1 (SEQ ID NO: 2) (FIG. 21B) and confirmed that PME-1 was appropriately expressed.
(§2) Total RNA was extracted with Qiagen RNAEasy kit from RL95-2 cells. cDNA was synthesized using 500 ng-1 μg of RNA and SuperScript VILO c-DNA mix (Life Technologies). Taqman probes and PCR-mix were purchased from Life Technologies. All samples were run in triplicates. Results are representative of three independent experiments in which genes of interest were normalized to the house-keeping gene, 18S or GAPDH, where fold-change was calculated using the ddCt method.

DcR2 = assay: Senescence assay: Western blot for DcR2 in RL95-2 cells; settings: RL95-2 cell lysates
Procedure: We next analyzed cell lysates taken from RL95-2 cells that expressed either empty vector (Control), overexpressed PME-1 (+PME-1) or expressed shRNA against PME-1 (−PME-1) for DcR2 protein.
(§3) 15 μg of protein was used for western analysis. PME-1 antibody (Santa Cruz) and COXIV (Cell Signaling Technologies) were used for detection of proteins and the blots were developed using chemiluminescence (Pierce ECL Western Blotting Substrate—Thermo Scientific) on the GE ImageQuant LAS 4000. For analysis of Akt, ERK, and β-catenin signaling in tissue culture, western analyses were completed as follows. RL95-2 cells stably infected with lentivirus expressing constructs were selected with puromycin (Invivogen). The cells were incubated with either 50 μM Akt inhibitor (LY 294002, Cell Signaling Technologies) or 40 μM ERK inhibitor (V0126, Cell Signaling Technologies) for 1-2 hours at 37° C. 1.5× Laemelli buffer (0.5 M Tris pH6.8, […], 10% sodium dodecyl sulfate, 100 mM EDTA) was used to prepare cell lysates. 20 μg of protein was used for western analysis. Primary antibodies used were: P-Akt (Ser473), P-Akt (Thr308), pan-Akt, P-ERK (Thr202/204), total ERK (Cell Signaling Technologies), PME-1 (Santa Cruz), phospho-β-catenin (Ser45, Cell Signaling Technologies), phospho-β-catenin (Ser33/37/Thr41, Cell Signaling Technologies), β-catenin (Abcam), DcR2 (Abcam), and GAPDH (Abcam). […]

ERK = assay: Western analysis of phospho-ERK in RL95-2 cells; settings: RL95-2, compared to control cells
Procedure: 15 μg of protein was used for western analysis. PME-1 antibody (Santa Cruz) and COXIV (Cell Signaling Technologies) were used for detection of proteins and the blots were developed using chemiluminescence (Pierce ECL Western Blotting Substrate—Thermo Scientific) on the GE ImageQuant LAS 4000. For analysis of Akt, ERK, and β-catenin signaling in tissue culture, western analyses were completed as follows. RL95-2 cells stably infected with lentivirus expressing constructs were selected with puromycin (Invivogen). The cells were incubated with either 50 μM Akt inhibitor (LY 294002, Cell Signaling Technologies) or 40 μM ERK inhibitor (V0126, Cell Signaling Technologies) for 1-2 hours at 37° C. 1.5× Laemelli buffer (0.5 M Tris pH6.8, […], 10% sodium dodecyl sulfate, 100 mM EDTA) was used to prepare cell lysates. 20 μg of protein was used for western analysis. Primary antibodies used were: P-Akt (Ser473), P-Akt (Thr308), pan-Akt, P-ERK (Thr202/204), total ERK (Cell Signaling Technologies), PME-1 (Santa Cruz), phospho-β-catenin (Ser45, Cell Signaling Technologies), phospho-β-catenin (Ser33/37/Thr41, Cell Signaling Technologies), β-catenin (Abcam), DcR2 (Abcam), and GAPDH (Abcam). All experiments were repeated several times with similar results.

RL95-2 cells [3] = assay: Foci formation assay, RL95-2 cells; settings: RL95-2 cells expressing shRNA, compared to control cells
Procedure: A foci forming assay was used to monitor cell growth. Equal amounts of tumor cells were plated and they were allowed to grow for a determined period of time (see Materials and Methods section for details). The foci that were formed were then stained with the crystal violet dye. Cells were washed 3 times with PBS prior to visualization. Numbers of foci were counted and results were averaged among different experiments.
To determine if the loss of active PME-1 accounted for the observed decrease in foci formation, we first treated RL95-2 cells with siRNA against the 3′-UTR of PPME1 (SEQ ID NO: 5 and SEQ ID NO: 6) to decrease endogenous levels of PME-1. […] The S156A PME-1 mutant is not capable of de methylaing its target, PP2A.
1,000 cells were plated in a six well tissue culture dish in selection media (to include 5 μg/ml puromycin) (InvivoGen). Cells were allowed to adhere and grow in a 5% CO2, 37° C. incubator for 10 to 14 days. Media was replaced every fourth day. Cells were stained with 1% crystal violet (Sigma Aldrich) for five minutes and rinsed with PBS. Colonies were counted and data is presented as the percentage of change compared to the control. All Experiments were repeated at least three times.

PME-1 = assay: Western blot of PME-1 protein in RL95-2 cells; settings: GAPDH loading control
Procedure: We prepared RL95-2 cell lines expressing empty vector (control), over-expressing PME-1 (+PME-1), or expressing shRNA against PPME1, the gene that codes for PME-1 protein (−PME-1). Using these cells, we confirmed the appropriate level of PME-1 via real-time RT-PCR (data not shown) and Western blot analysis (FIG. 8). GAPDH was used as a loading control.
We also prepared two different shRNAs targeted against PME-1.
as §3, with “analysis.” for “analysis. Primary antibodies used were: P-Akt (Ser473), P-Akt (Thr308), pan-Akt, P-ERK (Thr202/204), total ERK (Cell Signaling Technologies), PME-1 (Santa Cruz), phospho-β-catenin (Ser45, Cell Signaling Technologies), phospho-β-catenin (Ser33/37/Thr41, Cell Signaling Technologies), β-catenin (Abcam), DcR2 (Abcam), and GAPDH (Abcam).”

WNT3 = assay: qRT-PCR of WNT3 expression in RL95-2 cells; settings: RL95-2, qRT-PCR normalized to 18S
Procedure: as §1, §2

“shRNA (SEQ ID NO: 2): lentiviral shRNA against PPME1, target sequence SEQ ID NO: 2 GCAGCGATTATTAGTAGAGTT, bp 289-309; hairpin SEQ ID NO: 8 (CCGGGCAGCGATTATTAGTAGAGTTCTCGAGAACTCTACTAATAATCGCTGCTTTTT; listed as Homo sapiens)” was tested. Which “colony number and size in Matrigel” value (RL95-2 cells [1]; RL95-2, −TGF-β, compared to control cells) did it give?
The value was “fewer and smaller colonies”.

And the “decrease in colony formation” value (RL95-2 cells [1]; RL95-2 in Matrigel, 10 days, vs control cells)?
The value was 50%.

What about the “decreased proliferation (phospho-histone H3 positive cells)” value (RL95-2 cells [2]) of the same substance?
Its value is about 30%.

What about the “PME-1 knocked down (qRT-PCR, normalized to 18S)” value (PPME1 mRNA) of the same substance?
Its value is over 50%.

And the “senescent marker protein DcR2 (Western)” value (DcR2)?
Its value is “increase in the senescent marker protein, DcR2”.

What about the “phospho-ERK (Western)” value (ERK) of the same substance?
Its value is “decrease in phospho-ERK”.

What about the decrease in foci (RL95-2 cells [3]) of the same substance?
The decrease in foci was 75%.

What about the “PME-1 levels by Western blot analysis” value (PME-1) of the same substance?
The value was “significantly decreased PME-1 levels”.

And the WNT3 expression (WNT3)?
Its WNT3 expression is “significantly decreased”.
